Measured values published in article PMC7413516, “Antidepressant-like activity and safety profile evaluation of 1H-imidazo[2,1-f]purine-2,4(3H,8H)-dione derivatives as 5-HT1A receptor partial agonists” (PLoS ONE, 2020).
Where “and” joins values, the source holds several entries; their conditions need not be identical. Identical values can stand only once.

How the values were obtained:
[1] = system: mice; assay: Spontaneous activity monitoring (RFID TraffiCage, 18 h); type: in vivo, Swiss albino mice; settings: for Mean counts, spontaneous activity: 1.25 mg/kg
Experimental: (§1) The Swiss albino mice were used in the experiment. AZ-853 and AZ-861 were injected once daily for 16 consecutive days. On the 1st and 15th day the administration of the compounds, 18-h spontaneous animal activity was registered (see below). FST, as described earlier, was performed on the 14th day just before the next treatment. To ensure that the effects observed in FST are not the result of increased motility of animals, on the 13th day, just before the next administration, the locomotor activity was measured as described earlier, from 2 to 6 min after test start, i.e. in the period identical to the duration of FST. Blood and organ collection was performed on the 17th day at 24 h after the last dose and fasting.
The spontaneous activity of the mice was measured on the 1st and 15th day of the treatment with a special, innovative radiofrequency identification system (RFID-system)—TraffiCage (TSE-Systems, Germany). The test was conducted according to the method described in the literature. The animals had the transmitter (RFID) subcutaneously implanted, which tracked the time they spent in different areas of the cage. The data obtained were then grouped in a special computer program.

[2] = Liver, kidney and heart weight after repeated administration; type: in vivo, Swiss albino mice; settings: mice, AZ-853 0.625 mg/kg, AZ-861 1.25 mg/kg
Experimental: as §1
The body weight was measured daily immediately prior to administration of the drugs. On the 17th day, the blood was collected from the Swiss albino mice sacrificed by decapitation 20 min after i.p. administration of heparin (2500 units/mouse) and then centrifuged at 600 × g (15 min, 4°C) to separate plasma. The liver, heart, and kidney were also collected and weighed.

[3] = target: T1, human 5-HT1AR (Homo sapiens, UniProt P08908); assay: β-Arrestin recruitment (Tango LiveBLAzer, HTR1A-bla U2OS cells)
T1 sequence (P08908 1-422): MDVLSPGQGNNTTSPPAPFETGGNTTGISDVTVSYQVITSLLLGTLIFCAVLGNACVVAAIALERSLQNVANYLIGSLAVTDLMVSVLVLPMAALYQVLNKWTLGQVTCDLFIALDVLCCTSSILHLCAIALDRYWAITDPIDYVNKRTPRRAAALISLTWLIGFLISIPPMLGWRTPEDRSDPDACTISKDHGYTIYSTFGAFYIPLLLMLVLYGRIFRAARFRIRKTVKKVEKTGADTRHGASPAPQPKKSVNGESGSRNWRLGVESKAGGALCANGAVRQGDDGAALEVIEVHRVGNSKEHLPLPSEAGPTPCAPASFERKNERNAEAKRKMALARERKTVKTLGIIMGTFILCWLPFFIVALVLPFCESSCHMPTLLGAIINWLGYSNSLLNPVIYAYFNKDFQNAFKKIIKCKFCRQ
Experimental: Cells were cultured according to manufacturer’s instruction. […] This parental cell line stably expresses a beta-arrestin/TEV protease fusion protein and the beta-lactamase reporter gene under the control of a UAS response element. The Tango™ HTR1A-bla U2OS cells have been functionally validated for a response to 5-CT. This cell line tested negative for mycoplasma.
The HTR1A-bla U2OS receptor cells containing the human 5-HT1AR linked to a TEV protease site and a Gal4-VP16 transcription factor were tested for recruitment of β-arrestin. […] The recruitment of β-arrestin were tested using the Tango LiveBLAzer assay kit according to the manufacturer’s instruction (Life Technologies). The assay plate was measured in FLUOstar Optima, a multifunction plate reader (BMG Lab Tech).

[4] = system: normotensive rats; assay: Blood pressure measurement in normotensive anesthetized rats; type: in vivo, Wistar rats; settings: for DBP Mean / SBP Mean: group mean; for DBP / SBP: individual rat
Experimental: Male Wistar normotensive rats were anesthetized with thiopental (50–75 mg/kg, i.p.). The right carotid artery was cannulated with a polyethylene tube filled with heparin in saline to facilitate pressure measurement using the Datamax apparatus (Columbus Instruments, Columbus, Ohio, USA). The studied compounds were administered after a 15-min stabilization period.

[5] = target: serotonergic 5-HT1A receptor (5-HT1AR); set-up: method as in PMID 27353547; settings: ref [8]; cited from earlier work
[6] = 18-h monitoring, AZ-853 0.625, AZ-861 1.25 mg/kg b.w./day

Cn1c(=O)c2c(nc3n(CCCCN4CCN(c5cccc(C(F)(F)F)c5)CC4)ccn23)n(C)c1=O [AZ-861, 1,3-dimethyl-8-(4-(4-(3-(trifluoromethyl)phenyl)piperazin-1-yl)butyl)-1H-imidazo[2,1-f]purine-2,4(3H,8H)-dione]
spontaneous activity after the 1st administration vs. control [1, 6]: No effect on locomotor activity | spontaneous activity after the 15th administration vs. control [1, 6]: significant decrease in spontaneous activity | Mean counts, spontaneous activity ([1]; after 1st administration, 1 h after administration): 223.1 counts | Mean counts, spontaneous activity ([1]; after 1st administration, 2 h after administration): 212.3 counts | Mean counts, spontaneous activity ([1]; after 1st administration, 3 h after administration): 190.0 counts | Mean counts, spontaneous activity ([1]; after 1st administration, 4 h after administration): 112.6 counts | Mean counts, spontaneous activity ([1]; after 1st administration, 5 h after administration): 125.9 counts | Mean counts, spontaneous activity ([1]; after 1st administration, 6 h after administration): 188.8 counts | Mean counts, spontaneous activity ([1]; after 1st administration, 7 h after administration): 229.5 counts | Mean counts, spontaneous activity ([1]; after 1st administration, 8 h after administration): 268.3 counts | Mean counts, spontaneous activity ([1]; after 1st administration, 9 h after administration): 274.6 counts | Mean counts, spontaneous activity ([1]; after 1st administration, 10 h after administration): 298.0 counts | Mean counts, spontaneous activity ([1]; after 1st administration, 11 h after administration): 311.6 counts | Mean counts, spontaneous activity ([1]; after 1st administration, 12 h after administration): 274.9 counts | Mean counts, spontaneous activity ([1]; after 1st administration, 13 h after administration): 290.8 counts | Mean counts, spontaneous activity ([1]; after 1st administration, 14 h after administration): 267.1 counts | Mean counts, spontaneous activity ([1]; after 1st administration, 15 h after administration): 232.3 counts | Mean counts, spontaneous activity ([1]; after 1st administration, 16 h after administration): 255.3 counts | Mean counts, spontaneous activity ([1]; after 1st administration, 17 h after administration): 318.8 counts | Mean counts, spontaneous activity ([1]; after 1st administration, 18 h after administration): 275.9 counts | Mean counts, spontaneous activity ([1]; after 15th administration, 1 h after administration): 228.5 counts | Mean counts, spontaneous activity ([1]; after 15th administration, 2 h after administration): 121.0 counts | Mean counts, spontaneous activity ([1]; after 15th administration, 3 h after administration): 91.6 counts | Mean counts, spontaneous activity ([1]; after 15th administration, 4 h after administration): 149.1 counts | Mean counts, spontaneous activity ([1]; after 15th administration, 5 h after administration): 154.4 counts | Mean counts, spontaneous activity ([1]; after 15th administration, 6 h after administration): 159.0 counts | Mean counts, spontaneous activity ([1]; after 15th administration, 7 h after administration): 185.0 counts | Mean counts, spontaneous activity ([1]; after 15th administration, 8 h after administration): 140.4 counts | Mean counts, spontaneous activity ([1]; after 15th administration, 9 h after administration): 144.0 counts | Mean counts, spontaneous activity ([1]; after 15th administration, 10 h after administration): 195.7 counts | Mean counts, spontaneous activity ([1]; after 15th administration, 11 h after administration): 177.3 counts | Mean counts, spontaneous activity ([1]; after 15th administration, 12 h after administration): 236.1 counts | Mean counts, spontaneous activity ([1]; after 15th administration, 13 h after administration): 169.1 counts | Mean counts, spontaneous activity ([1]; after 15th administration, 14 h after administration): 242.3 counts | Mean counts, spontaneous activity ([1]; after 15th administration, 15 h after administration): 172.6 counts | Mean counts, spontaneous activity ([1]; after 15th administration, 16 h after administration): 218.9 counts | Mean counts, spontaneous activity ([1]; after 15th administration, 17 h after administration): 210.1 counts | Mean counts, spontaneous activity ([1]; after 15th administration, 18 h after administration): 244.6 counts | effect on liver, kidney and heart weight (% of total body weight) [2]: neither AZ-853 (0.625 mg/kg) nor AZ-861 (1.25 mg/kg) influenced | EC50 [3]: 0.372 nM | Emax ([3]; U2OS, read-out: Emax (%) ± SEM, agonist mode): 95 ± 1.7% | increased potency as compared to 5-HT ([3]; β-arrestin recruitment): 1000 fold | effect on arterial pressure ([4]; 10 mg/kg): did not significantly affect the arterial pressure | DBP Mean ([4]; time 0 min): 86.8 mmHg | SBP Mean ([4]; time 0 min): 124.2 mmHg | DBP ([4]; time 0 min): 74 mmHg and 91 mmHg and 79 mmHg and 94 mmHg and 89 mmHg | SBP ([4]; time 0 min): 113 mmHg and 124 mmHg and 105 mmHg and 134 mmHg and 135 mmHg | DBP Mean ([4]; time 5 min): 87.2 mmHg | SBP Mean ([4]; time 5 min): 122.2 mmHg | DBP ([4]; time 5 min): 91 mmHg and 76 mmHg and 84 mmHg and 93 mmHg and 98 mmHg and 81 mmHg | SBP ([4]; time 5 min): 122 mmHg and 101 mmHg and 119 mmHg and 139 mmHg and 138 mmHg and 114 mmHg | DBP Mean ([4]; time 10 min): 86.8 mmHg | SBP Mean ([4]; time 10 min): 122.3 mmHg | DBP ([4]; time 10 min): 90 mmHg and 76 mmHg and 87 mmHg and 98 mmHg and 80 mmHg | SBP ([4]; time 10 min): 120 mmHg and 102 mmHg and 124 mmHg and 139 mmHg and 136 mmHg and 113 mmHg | DBP Mean ([4]; time 15 min): 86.2 mmHg | SBP Mean ([4]; time 15 min): 123.3 mmHg | DBP ([4]; time 15 min): 90 mmHg and 77 mmHg and 89 mmHg and 94 mmHg | SBP ([4]; time 15 min): 120 mmHg and 103 mmHg and 137 mmHg and 138 mmHg and 131 mmHg and 111 mmHg | DBP Mean ([4]; time 20 min): 85.8 mmHg | SBP Mean ([4]; time 20 min): 121.8 mmHg | DBP ([4]; time 20 min): 89 mmHg and 76 mmHg and 91 mmHg and 87 mmHg and 94 mmHg | SBP ([4]; time 20 min): 118 mmHg and 100 mmHg and 138 mmHg and 139 mmHg and 128 mmHg and 109 mmHg | DBP Mean ([4]; time 30 min): 86.5 mmHg | SBP Mean ([4]; time 30 min): 124.2 mmHg | DBP ([4]; time 30 min): 88 mmHg and 77 mmHg and 93 mmHg and 89 mmHg and 94 mmHg and 74 mmHg | SBP ([4]; time 30 min): 119 mmHg and 101 mmHg and 136 mmHg and 139 mmHg and 128 mmHg and 108 mmHg | DBP Mean ([4]; time 40 min): 85.5 mmHg | SBP Mean ([4]; time 40 min): 122.0 mmHg | DBP ([4]; time 40 min): 88 mmHg and 76 mmHg and 92 mmHg and 95 mmHg and 75 mmHg | SBP ([4]; time 40 min): 122 mmHg and 106 mmHg and 134 mmHg and 136 mmHg and 128 mmHg and 108 mmHg | DBP Mean ([4]; time 50 min): 85.7 mmHg | SBP Mean ([4]; time 50 min): 122.3 mmHg | DBP ([4]; time 50 min): 96 mmHg and 81 mmHg and 89 mmHg and 84 mmHg and 93 mmHg and 77 mmHg | SBP ([4]; time 50 min): 134 mmHg and 110 mmHg and 130 mmHg and 135 mmHg and 125 mmHg | DBP Mean ([4]; time 60 min): 86.7 mmHg | SBP Mean ([4]; time 60 min): 124.0 mmHg | DBP ([4]; time 60 min): 98 mmHg and 83 mmHg and 88 mmHg and 82 mmHg and 93 mmHg and 75 mmHg | SBP ([4]; time 60 min): 135 mmHg and 112 mmHg and 129 mmHg and 126 mmHg and 108 mmHg | DBP Mean ([4]; time 70 min): 86.3 mmHg | SBP Mean ([4]; time 70 min): 123.7 mmHg | DBP ([4]; time 70 min): 96 mmHg and 86 mmHg and 80 mmHg and 93 mmHg and 77 mmHg | SBP ([4]; time 70 min): 134 mmHg and 115 mmHg and 127 mmHg and 128 mmHg and 125 mmHg and 113 mmHg | DBP Mean ([4]; time 80 min): 86.8 mmHg | SBP Mean ([4]; time 80 min): 124.5 mmHg | DBP ([4]; time 80 min): 97 mmHg and 87 mmHg and 86 mmHg and 82 mmHg and 93 mmHg and 76 mmHg | SBP ([4]; time 80 min): 134 mmHg and 115 mmHg and 126 mmHg and 131 mmHg and 125 mmHg and 116 mmHg | Ki [5]: 0.2 nM
